Source: EP4342530A1, “SORTILIN MODULATORS” (Insusense ApS, priority 2022, dated 2024)
Where “and” joins values, the source holds several entries; their conditions need not be identical. Equal entries are not always repeated.

Legend:
in vitro [1] = assay type: in vitro ADME; conditions: mouse, plasma, pH 7.4
Method: (§1) Plasma protein binding and brain homogenate binding for study compounds in mouse, dog, and rat by rapid equilibrium dialysis
(§2) In practice, unbound fractions in plasma and brain tissue were assessed using rapid equilibrium dialysis in vitro. Separately a pharmacokinetic study was run in vivo whereby a dose of the compound of interest was given at T=0 hours and at subsequent timepoints (eg 0.5, 1 and 4 hours) plasma and separately brain samples were analysed for total concentration of the compound of interest. These total concentrations could then be adjusted with the unbound fraction to give the unbound concentrations in the plasma and brain.
(§3) The test compounds were incubated in plasma and brain homogenate from the relevant species at 37 °C in RED device with inserts (8K MWCO, Thermo scientific) for 4 hours at 5 µM in triplicates. 350 µL of 150 mM phosphate buffered saline (PBS, pH 7.4) was used as the receiver side solutions. […] After 10-minute centrifugation at 13 200 rpm, the sample supernatants were analysed with an LC-MS/MS, to obtain the unbound fraction of the test compound (Fub). The unbound fraction was calculated from the peak area ratios obtained for each matrix: Fub = CPBS /Cplasma; [formula] where CPBS and Cplasma are the analyte concentrations in PBS (receiver) and plasma (donor), respectively. […]

in vitro [2] = assay type: in vitro ADME; conditions: mouse, brain homogenate, pH 7.4
Method: as §1, §2, §3

[3] = Blood-brain-barrier permeability in mice after IV administration; conditions: 3 mg/kg intravenously, 0.5 hours after dosing
Method: (§4) The compound is administered to the animal in a suitable vehicle at T=0 hours. At 0.5 hours post administration plasma and separately brain are removed, prepared and analysed for total compound concentration.
(§5) Temperature: 45 °C Injection Volume: 1.5 µl for brain, 4 µl for plasma Ion Source: ESI+, SRM detection
(§6) The unbound partition coefficient (Kpuu) was determined as a ratio between the free compound concentrations in plasma and brain: Kpuu = (Cub,brain)/(Cub,plasma) [formula]
(§7) Where Cu,brain = unbound concentration in brain (C × Fub, brain); wherein • C = concentration at steady state; and • Cub,plasma = unbound concentration in plasma (C × Fub).

in vivo = conditions: male, CD1 (ICR), mouse
Method: as §4, §5, §6, §7

SMILES: Cc1cccc(NC(=O)c2ccc(C(F)(F)F)cc2C(=O)O)n1 [Comparative Example 1]
- fraction unbound at 4 h, 5 µM (in vitro [1]): 0.068
- fraction unbound at 4 h, 5 µM (in vitro [2]): 0.273
- Brain to plasma ratio % [3]: <1%
- Kp uu at 0.5 h (in vivo): < 0.1
- Kp at 0.5 h (in vivo; 3 mg/kg): < 0.01
- concentration at 0.5 h (in vivo; 3 mg/kg): 3090 ng/mL and 5 ng/g
